# Results reported in patent US20080200337A1, “Mixed herbicide compositions for paddy field” (Bayer CropScience, priority 2007, published 2008).
# Several values for one entry are separate records, joined by “and”; a condition that tells them apart may be missing. Equal values may be shown once.
# How the values were obtained:
# Type in all cases: in vivo
# [1] = tested on: Monochoria vaginalis Presl; test: Weed control, flooded paddy field, treatment at 3 leaf-stage (Test Example 2); conditions: after 4 weeks
# Protocol: (§1) Carrier: 5 parts by weight of acetone
# (§2) Surfactant: one part by weight of benzyloxy polyglycol ether.
# (§3) Above described carrier and surfactant are mixed with one part by weight of the active compound ((a) ingredient and (b) ingredient) and the resulting preparation is then diluted with water to obtain given amount of the test drug (the formulation).
# (§4) In a greenhouse, seeds or tubers of Echinochloa, Cyperus difformis L., Scirpus juncoides Roxburgh, Monochoria vaginalis Presl, annual broad-leaved weeds (Lindernia procumbens Philcox, Lindernia dubia L. Penn., Rotala indica Koehne, Elatine triandra Schk, Ammannia multiflora Roxb.), Cyperus serotinus Rottboel and Sagittaria pygmaea Miq. were inoculated in a 500 cm^2 pot filled with paddy field soil. After 2 leaf-stage of rice were transplanted, water was poured to a depth of about 3 cm. At 3.0 leaf-stage of Echinochloa, a prescribed, diluted solution of the formulation of each active compound and each herbicidal compound in the table was separately or simultaneously applied to the surface of water. After the treatment, the water depth of 3 cm was maintained, and herbicidal effect was examined after 4 weeks. In the assessment of the herbicidal effect and the phytotoxicity, 100% refers to complete death and 0% refers to no effect or no phytotoxicity.
# Echinochloa [2] = test: as above; conditions: after 4 weeks
# Protocol: as §1, §2, §3, §4
# Sagittaria pygmaea Miq. [3] = test: as above; conditions: after 4 weeks
# Protocol: as §1, §2, §3, §4
# [4] = tested on: Cyperus serotinus Rottboel; test: as above; conditions: after 4 weeks
# Protocol: as §1, §2, §3, §4
# [5] = tested on: annual broad-leaved weeds; test: as above; conditions: after 4 weeks
# Protocol: as §1, §2, §3, §4
# [6] = tested on: Scirpus juncoides Roxburgh; test: as above; conditions: after 4 weeks
# Protocol: as §1, §2, §3, §4
# [7] = tested on: Monochoria vaginalis Presl; test: Weed control, flooded paddy field, treatment at 1 leaf-stage (Test Example 1); conditions: after 4 weeks
# Protocol: as §1, §2, §3
# as §4, with “Echinochloa,” for “Echinochloa, Cyperus difformis L.,”, “1.0” for “3.0”, “Echinochloa oryzicola Vasing,” for “Echinochloa,”
# Echinochloa [8] = test: as above; conditions: after 4 weeks
# Protocol: as §1, §2, §3
# as §4, with “Echinochloa,” for “Echinochloa, Cyperus difformis L.,”, “1.0” for “3.0”, “Echinochloa oryzicola Vasing,” for “Echinochloa,”
# Sagittaria pygmaea Miq. [9] = test: as above; conditions: after 4 weeks
# Protocol: as §1, §2, §3
# as §4, with “Echinochloa,” for “Echinochloa, Cyperus difformis L.,”, “1.0” for “3.0”, “Echinochloa oryzicola Vasing,” for “Echinochloa,”
# [10] = tested on: Cyperus serotinus Rottboel; test: as above; conditions: after 4 weeks
# Protocol: as §1, §2, §3
# as §4, with “Echinochloa,” for “Echinochloa, Cyperus difformis L.,”, “1.0” for “3.0”, “Echinochloa oryzicola Vasing,” for “Echinochloa,”
# [11] = tested on: annual broad-leaved weeds; test: as above; conditions: after 4 weeks
# Protocol: as §1, §2, §3
# as §4, with “Echinochloa,” for “Echinochloa, Cyperus difformis L.,”, “1.0” for “3.0”, “Echinochloa oryzicola Vasing,” for “Echinochloa,”
# [12] = tested on: Scirpus juncoides Roxburgh; test: as above; conditions: after 4 weeks
# Protocol: as §1, §2, §3
# as §4, with “Echinochloa,” for “Echinochloa, Cyperus difformis L.,”, “1.0” for “3.0”, “Echinochloa oryzicola Vasing,” for “Echinochloa,”
# transplanted rice [13] = test: Phytotoxicity, flooded paddy field, treatment at 3 leaf-stage (Test Example 2)
# Protocol: as §1, §2, §3, §4
# transplanted rice [14] = test: Phytotoxicity, flooded paddy field, treatment at 1 leaf-stage (Test Example 1); conditions: treatment at 1 leaf-stage, after 4 weeks
# Protocol: as §1, §2, §3
# as §4, with “Echinochloa,” for “Echinochloa, Cyperus difformis L.,”, “1.0” for “3.0”, “Echinochloa oryzicola Vasing,” for “Echinochloa,”
smiles,measurement,setting,value
"CC(C)(NC(=O)C(Br)C(C)(C)C)c1ccccc1 (stereo not shown) [(b-2), bromobutide]",Herbicidal effect (%) MOOVP,[1]; 750 g ai/ha,70%
same,Herbicidal effect (%) ECHSS,Echinochloa [2]; 750 g ai/ha,45%
same,Herbicidal effect (%) SAGPY,Sagittaria pygmaea Miq. [3]; 750 g ai/ha,40%
same,Herbicidal effect (%) CYPSEE,[4]; 750 g ai/ha,90%
same,Herbicidal effect (%) BBBBB,[5]; 750 g ai/ha,30%
same,Herbicidal effect (%) SCPSS,[6]; 750 g ai/ha,80%
same,Herbicidal effect (%) MOOVP,[7]; 750 g ai/ha,80%
same,Herbicidal effect (%) ECHSS,Echinochloa [8]; 750 g ai/ha,100%
same,Herbicidal effect (%) SAGPY,Sagittaria pygmaea Miq. [9]; 750 g ai/ha,70%
same,Herbicidal effect (%) CYPSEE,[10]; 750 g ai/ha,70%
same,Herbicidal effect (%) BBBBB,[11]; 750 g ai/ha,50%
same,Herbicidal effect (%) SCPSS,[12]; 750 g ai/ha,90%
same,Phytotoxicity (%) ORYSP,"transplanted rice [13]; rice, in vivo, 4 weeks",0%
same,Phytotoxicity (%) ORYSP,transplanted rice [14]; 750 g ai/ha,0%
"CS(=O)(=O)c1ccc(C(=O)C2C(=O)CCCC2=O)c(Cl)c1COCC1CCCO1 (stereo not shown) [(b-7), 2-{2-chloro-4-mesyl-3-[(tetrahydrofuran-2-ylmethoxy)methyl]-benzoyl}-cyclohexan-1,3-dione]",Herbicidal effect (%) MOOVP,[1]; 200 g ai/ha,95%
same,Herbicidal effect (%) ECHSS,Echinochloa [2]; 200 g ai/ha,70%
same,Herbicidal effect (%) SAGPY,Sagittaria pygmaea Miq. [3]; 200 g ai/ha,80%
same,Herbicidal effect (%) CYPSEE,[4]; 200 g ai/ha,70%
same,Herbicidal effect (%) SCPSS,[6]; 200 g ai/ha,88%
same,Herbicidal effect (%) MOOVP,[7]; 200 g ai/ha,90%
same,Herbicidal effect (%) ECHSS,Echinochloa [8]; 200 g ai/ha,95%
same,Herbicidal effect (%) SAGPY,Sagittaria pygmaea Miq. [9]; 200 g ai/ha,90%
same,Herbicidal effect (%) CYPSEE,[10]; 200 g ai/ha,90%
same,Herbicidal effect (%) BBBBB,[11]; 200 g ai/ha,90%
same,Herbicidal effect (%) SCPSS,[12]; 200 g ai/ha,95%
same,Phytotoxicity (%) ORYSP,"transplanted rice [13]; rice, in vivo, 4 weeks",0%
same,Phytotoxicity (%) ORYSP,transplanted rice [14]; 200 g ai/ha,0%
"Cc1c(Cl)ccc(OC(C)C(=O)Nc2ccccc2)c1Cl (stereo not shown) [(b-1), clomeprop]",Herbicidal effect (%) MOOVP,[1]; 350 g ai/ha,100%
same,Herbicidal effect (%) ECHSS,Echinochloa [2]; 350 g ai/ha,20%
same,Herbicidal effect (%) SAGPY,Sagittaria pygmaea Miq. [3]; 350 g ai/ha,90%
same,Herbicidal effect (%) CYPSEE,[4]; 350 g ai/ha,20%
same,Herbicidal effect (%) BBBBB,[5]; 350 g ai/ha,90%
same,Herbicidal effect (%) SCPSS,[6]; 350 g ai/ha,90%
same,Herbicidal effect (%) MOOVP,[7]; 350 g ai/ha,100%
same,Herbicidal effect (%) ECHSS,Echinochloa [8]; 350 g ai/ha,20%
same,Herbicidal effect (%) SAGPY,Sagittaria pygmaea Miq. [9]; 350 g ai/ha,90%
same,Herbicidal effect (%) CYPSEE,[10]; 350 g ai/ha,50%
same,Herbicidal effect (%) BBBBB,[11]; 350 g ai/ha,100%
same,Herbicidal effect (%) SCPSS,[12]; 350 g ai/ha,90%
same,Phytotoxicity (%) ORYSP,"transplanted rice [13]; rice, in vivo, 4 weeks",0%
same,Phytotoxicity (%) ORYSP,transplanted rice [14]; 350 g ai/ha,10% and 0%
"CCN(C(=O)n1nnn(-c2ccccc2Cl)c1=O)C1CCCCC1 [(b-6), fentrazamide]",Herbicidal effect (%) MOOVP,[1]; 300 g ai/ha,55%
same,Herbicidal effect (%) ECHSS,Echinochloa [2]; 300 g ai/ha,69%
same,Herbicidal effect (%) SAGPY,Sagittaria pygmaea Miq. [3]; 300 g ai/ha,50%
same,Herbicidal effect (%) CYPSEE,[4]; 300 g ai/ha,75%
same,Herbicidal effect (%) BBBBB,[5]; 300 g ai/ha,55%
same,Herbicidal effect (%) SCPSS,[6]; 300 g ai/ha,80%
same,Herbicidal effect (%) MOOVP,[7]; 300 g ai/ha,95%
same,Herbicidal effect (%) ECHSS,Echinochloa [8]; 300 g ai/ha,95%
same,Herbicidal effect (%) SAGPY,Sagittaria pygmaea Miq. [9]; 300 g ai/ha,50%
same,Herbicidal effect (%) CYPSEE,[10]; 300 g ai/ha,95%
same,Herbicidal effect (%) BBBBB,[11]; 300 g ai/ha,85%
same,Herbicidal effect (%) SCPSS,[12]; 300 g ai/ha,95%
same,Phytotoxicity (%) ORYSP,"transplanted rice [13]; 300 g ai/ha, treatment at 3 leaf-stage, after 4 weeks",0%
same,Phytotoxicity (%) ORYSP,transplanted rice [14]; 300 g ai/ha,0%
